The values below come from the C3SDB collision cross section collection.

The conditions of series [1]: instrument: DT, stepped-field.
For series [2] the following is noted: instrument: TW, calibrated with phosphatidylcholines (ESI+) and phosphatidylethanolamines (ESI-).
The conditions of series [3]: [M+H]+; instrument: DT; single field.
For series [4] the following is noted: instrument: DT, single field, calibrated with Agilent tune mix (Agilent).
For series [5] the following is noted: [M+Na]+; instrument: DT; stepped-field.

Several values for one entry are separate records, joined by “and”; a condition that tells them apart may be missing. Equal values may be shown once.

As to `CCCCCC/C=C\CCCCCCCC(=O)OC[C@@H](O)COP(=O)(O)O` [LPA(16:1)], the “collision cross section (N2)” value in series [1] ([M-H]-) was found to be 191.1 Å².
For `CCCCCCCCCCCCCCCCCC(=O)O[C@H](CO)COP(=O)(O)O` [LPA(18:0)], the “collision cross section (N2)” value in series [1] ([M-H]-) was 206.2 Å².
In the case of `CCCCCCCCCCCCCCCCCC(=O)OC[C@@H](O)COP(=O)(O)OC[C@@H](O)CO` [LPG(18:0)], the “collision cross section (N2)” value in series [1] ([M-H]-) came out at 221.9 Å².
As to `CCCCCCCC/C=C\CCCCCCCC(=O)OC[C@@H](O)COP(=O)(O)O[C@H]1C(O)C(O)C(O)[C@@H](O)C1O` (some centres not stated) [LPI(18:1)], the “collision cross section (N2)” value in series [1] ([M-H]-) is listed as 233.4 Å².
Regarding `CCCCC/C=C\C/C=C\CCCCCCCCCC(=O)O[C@H](COC(=O)CCCCCCCCCCC)COP(=O)(O)O` [PA(16:1/16:1)], the “collision cross section (N2)” value in series [1] ([M-H]-) came to 250 Å².
With `CCCCC/C=C\C/C=C\CCCCCCCCCCCC(=O)O[C@H](COC(=O)CCCCCCCCCCC)COP(=O)(O)O` [PA(16:1/18:1)], the “collision cross section (N2)” value in series [1] ([M-H]-) is listed as 257 Å².
Turning to `CCCCCCC/C=C\CCCCCCCC(=O)O[C@H](COC(=O)CCCCCCCCCCCC)COP(=O)([O-])OCC[N+](C)(C)C` [PC(14:0/16:1)], in series [1] ([M+H]+), the “collision cross section (N2)” value is listed as 283.6 Å².
Consider `CCCCCCCCCCCCCCCCCCCC(=O)O[C@H](COC(=O)CCCCCCCCCCC)COP(=O)([O-])OCC[N+](C)(C)C` [PC(32:0)], for which the “collision cross section (N2)” value in series [2] ([M+H]+) was 281 Å²; in series [3], 282.65 Å² and 284.23 Å²; in series [4] ([M+H]+), 283.4 Å².
For the molecule `CC/C=C\C/C=C\C/C=C\CCCCCCCC(=O)OC[C@H](COP(=O)([O-])OCC[N+](C)(C)C)OC(=O)CCCCCC/C=C\C/C=C\C/C=C\CCCCC` [PC(38:6)], the “collision cross section (N2)” value turned out to be 294 Å² in series [2] ([M+CH3COO]-); 286.8 Å² in series [2] ([M+H]+); 299.9 Å² in series [1] ([M+H]+); 291.9 Å² in series [4] ([M+HCOO]-); 293.3 Å² in series [4] ([M+Na]+).
Turning to `CCCCC/C=C\C/C=C\C/C=C\CCCCC(=O)O[C@H](COCCCCCCCCCCCCCCCC)COP(=O)([O-])OCC[N+](C)(C)C` [PC(o34:3)], the “collision cross section (N2)” value in series [1] ([M+H]+) worked out at 294 Å².
Consider `CCCCC/C=C\C/C=C\C/C=C\C/C=C\CCCC(=O)O[C@H](COCCCCCCCCCCCCCCCC)COP(=O)([O-])OCC[N+](C)(C)C` [PC(o36:4)], for which the “collision cross section (N2)” value in series [1] ([M+H]+) is reported as 297.2 Å².
Take `CCCC/C=C\CCCCCCCCCC(=O)OC[C@H](COP(=O)(O)OCCN)OC(=O)CCCCCCCCC/C=C\CCCC` [PE(16:1/16:1)]: in series [1] ([M+H]+), the “collision cross section (N2)” value is recorded as 276.6 Å².
Still for that read-out and setting: the figure for `CCCC/C=C\CCCCCCCCCCCC(=O)O[C@H](COC(=O)CCCCCCCCCCCCCCCCCCC)COP(=O)(O)OCCN` [PE(38:1)] is 299.8 Å².
With `CCCCCC/C=C\CCCCCCCC(=O)OC[C@H](COP(=O)(O)OCCN)OC(=O)CCCCCCCCC/C=C\CCCCCCCCCC` [PE(38:2)], the “collision cross section (N2)” value is recorded as 274.1 Å² in series [2] ([M-H]-), 298.6 Å² in series [1] ([M+H]+) and 285.1 Å² in series [4] ([M+H]+).
As to `CCCCC/C=C\C/C=C\C/C=C\CCCCC(=O)O[C@H](COCCCCCCCCCCCCCCCCCC)COP(=O)(O)OCCN` [PE(o36:3)], the “collision cross section (N2)” value in series [5] was determined as 285.4 Å²; in series [1] ([M+H]+), 290.1 Å²; in series [1] ([M-H]-), 273.1 Å².
Consider `CCCCC/C=C\C/C=C\C/C=C\C/C=C\CCCC(=O)O[C@H](COCCCCCCCCCCCCCCCC)COP(=O)(O)OCCN` [PE(o36:4)], for which the “collision cross section (N2)” value in series [5] turned out to be 281.6 Å²; in series [1] ([M-H]-), 270 Å².
Regarding `CCCCC/C=C\C/C=C\C/C=C\C/C=C\C/C=C\CCC(=O)O[C@H](COCCCCCCCCCCCCCCCC)COP(=O)(O)OCCN` [PE(o38:5)], the entries for the “collision cross section (N2)” value in series [5] and in series [1] ([M-H]-) were 287.7 Å² and 277.8 Å², respectively.
Take `CCCCC/C=C\C/C=C\CCCCCCCCCCCC(=O)O[C@H](COC(=O)CCCCCCCCCCC)COP(=O)(O)OC[C@@H](O)CO` [PG(16:1/18:1)]: in series [1] ([M-H]-), the “collision cross section (N2)” value is 274 Å² and 273.8 Å² and 274.3 Å².
Turning to `CCCCCCCCCCCCCCCCC(=O)O[C@H](COC(=O)CCCCCCCCCCCCCC)COP(=O)(O)OC[C@@H](O)CO` [PG(32:0)], the “collision cross section (N2)” value amounted to 277.3 Å² in series [2] ([M+Na]+), 263.5 Å² in series [2] ([M-H]-), 270.3 Å² in series [1] ([M-H]-) and 265.1 Å² in series [4] ([M-H]-).
For `CCCC/C=C\CCCCCCCC(=O)OC[C@H](COP(=O)(O)OC[C@@H](O)CO)OC(=O)CCCCCCCCCCC/C=C\C/C=C\CCCCC` [PG(36:3)], the “collision cross section (N2)” value was determined as 282 Å² in series [2] ([M+Na]+); 272.2 Å² in series [2] ([M-H]-); 280 Å² in series [1] ([M-H]-); 285.4 Å² in series [4] ([M+H]+); 286.5 Å² in series [4] ([M+NH4]+); 272.8 Å² in series [4] ([M-H]-).
Turning to `CCCCC/C=C\C/C=C\CCCCCCCCCCCC(=O)O[C@H](COC(=O)CCCCCCCCCCCCCC)COP(=O)(O)OC[C@@H](O)CO` [PG(37:2)], the “collision cross section (N2)” value in series [1] ([M-H]-) amounted to 285.5 Å².
In the case of `CCCCCCCCCC/C=C\CCCCCCCCCC(=O)O[C@H](COC(=O)CCCCCCCCCCCCC)COP(=O)(O)O[C@H]1C(O)C(O)C(O)[C@@H](O)C1O` (some centres not stated) [PI(18:0/18:1)], in series [1] ([M-H]-), the “collision cross section (N2)” value is 297.5 Å² and 297.7 Å².
As to `CCCC/C=C\C/C=C\CCCCCCCC(=O)O[C@H](COC(=O)CCCCCCC/C=C\CCCCCCCCC)COP(=O)(O)O[C@H]1C(O)C(O)C(O)[C@@H](O)C1O` (some centres not stated) [PI(36:3)], the “collision cross section (N2)” value in series [2] ([M+Na]+) amounted to 291.1 Å²; in series [2] ([M-H]-), 287.2 Å²; in series [1] ([M-H]-), 296.3 Å²; in series [4] ([M+H]+), 296.4 Å²; in series [4] ([M+NH4]+), 297.4 Å²; in series [4] ([M+Na]+) it was 295.5 Å².
On to `CCCCCCCCC/C=C\CCCCCCCC(=O)O[C@H](COC(=O)CCCCCCCCCCCC)COP(=O)(O)OC[C@H](N)C(=O)O` [PS(16:0/16:1)], for which the “collision cross section (N2)” value in series [1] ([M-H]-) was determined as 272.6 Å².
In the case of `CCCCCCCC/C=C\CCCCCCCC(=O)O[C@H](COC(=O)CCCCCCCCCCCCCCC)COP(=O)(O)OC[C@H](N)C(=O)O` [PS(16:0/18:1)], the “collision cross section (N2)” value in series [1] ([M-H]-) is 278.8 Å².
Still for that read-out and setting: the figure for `CCCC/C=C\CCCCCCCC(=O)OC[C@H](COP(=O)(O)OC[C@H](N)C(=O)O)OC(=O)CCCCCCC/C=C\CCCCCCCC` [PS(16:1/16:1)] is 270.6 Å²; for `CCCCCC/C=C\CCCCCCCC(=O)OC[C@H](COP(=O)(O)OC[C@H](N)C(=O)O)OC(=O)CCCCCCCCC/C=C\CCCCCCCCCC` [PS(38:2)] it is 294.3 Å²; for `CCCCC/C=C\C/C=C\CCCCCCCCCCCC(=O)O[C@H](COC(=O)CCCCCCCCCCCCCCCCC)COP(=O)(O)OC[C@H](N)C(=O)O` [PS(40:2)] it is 301 Å².
As to `CCCCC/C=C\C/C=C\CCCCCCCCCCCC(=O)O[C@H](COC(=O)CCCCCCC/C=C\CCCCCCCC)COP(=O)(O)OC[C@H](N)C(=O)O` [PS(40:3)], the “collision cross section (N2)” value in series [1] ([M-H]-) turned out to be 299 Å²; in series [4] ([M+H]+) it was 295.2 Å².
Consider `CCCCC/C=C\C/C=C\C/C=C\CCCCC(=O)OC[C@H](COP(=O)(O)OC[C@H](N)C(=O)O)OC(=O)CCCCCCCCCCC/C=C\C/C=C\CCCCC` [PS(40:5)], for which the “collision cross section (N2)” value in series [2] ([M-H]-) came out at 285.6 Å²; in series [1] ([M-H]-), 296.4 Å²; in series [4] ([M+H]+), 292.1 Å²; in series [4] ([M+Na]+), 296.7 Å²; in series [4] ([M-H]-), 285.7 Å².
In the case of `CCCCC/C=C\C/C=C\C/C=C\C/C=C\CCCCCC(=O)O[C@H](COC(=O)CCCCCCC/C=C\C/C=C\CCCCC)COP(=O)(O)OC[C@H](N)C(=O)O` [PS(40:6)], the “collision cross section (N2)” value in series [2] ([M-H]-) amounted to 284.6 Å²; in series [1] ([M-H]-), 295.4 Å²; in series [4] ([M+H]+) it was 289.6 Å²; in series [4] ([M+Na]+), 293.9 Å²; in series [4] ([M-H]-) it was 284.9 Å².
Consider `CCCCCCCCCCCCC=CC[C@@H](O)[C@H](COP(=O)([O-])OCC[N+](C)(C)C)NC(=O)CCCCCCCCCCCCCCC` [SM(34:1)], for which the “collision cross section (N2)” value amounted to 281.13 Å² in series [3], 285.1 Å² in series [5], 280.9 Å² in series [4] ([M+HCOO]-) and 283.9 Å² in series [4] ([M+H]+).
As to `CCCCCCCCCCCCC=CC[C@@H](O)[C@H](COP(=O)([O-])OCC[N+](C)(C)C)NC(=O)CCCCCCCCCCCCCCCCC` [SM(36:1)], the “collision cross section (N2)” value in series [3] came out at 286.91 Å²; in series [5], 292.4 Å²; in series [4] ([M+HCOO]-) it was 286.4 Å²; in series [4] ([M+H]+), 289.1 Å²; in series [4] ([M+Na]+), 290 Å².
Take `CCCCCCCCCCCCC=CC[C@@H](O)[C@H](COP(=O)([O-])OCC[N+](C)(C)C)NC(=O)CC=CCCCCCCCCCCCCCCCCCC` [SM(40:2)]: the “collision cross section (N2)” value is given as 298.58 Å² in series [3], 301.7 Å² in series [5] and 298.4 Å² in series [4] ([M+H]+).
